Experimental data reported in patent US10624908B2, “Phosphopantetheine compounds alone or in combination with HMG-CoA reductase inhibitors for lowering serum cholesterol and serum triglicerides” (COMET THERAPEUTICS, INC., priority 2014, dated 2020).

Assays:
[1] = Conversion of CoA into 4′-phosphopantetheine in human serum (HPLC)
Description: (§1) Materials and Methods: CoA (purchased from Sigma) was incubated at a final concentration of 10 μM human serum for 6 hours at 37° C. After incubation, the samples were processed to remove proteins and HPLC analysis was used to assess the amount of remaining compound CoA and amount of generated 4′-phosphopantetheine, indicating conversion of CoA to 4′-phosphopantetheine.

HEK293 cells = test: Rescue potential of CoA and 4′-phosphopantetheine in HOPAN assay; type: cell-based, mammalian; conditions: HOPAN 0.5 mM, 250 μM compound, 4 days
Description: Mammalian HEK293 cells treated with the chemical inhibitor HOPAN (hopanthenate, CAS 17097-76-6, IUPAC: calcium 4-[[(2R)-2,4-dihydroxy-3,3-dimethylbutanoyl]amino]butanoate). Cells treated with HOPAN show a reduction in intracellular CoA levels, which induces a decrease in cell viability.
Materials and Methods: HEK293 cells were cultured in vitamin B5 deficient DMEM (Thermo Scientific) supplemented with 10% dialysed FCS (Thermo Scientific) with and without HOPAN (0.5 mM) and CoA and 4′-phosphopantetheine for 4 days. 250 μM of CoA and 4′-phosphopantetheine was used for determination of rescue efficiency.

[2] = Translocation through cell membranes / uptake by cells; type: cell-based
[3] = patients with moderate dyslipidemia; cited from earlier work
[4] = 3 h, 10 μM
Description: as §1

[5] = 400 U Coenzyme A/day for 3 weeks combined with statins, oral; cited from earlier work

For `CC(C)(COP(=O)(O)O)[C@@H](O)C(=O)NCCC(=O)NCCS` [4′-phosphopantetheine], the “stability in human serum” value ([1]; human serum over 6 hours incubation) was “stable”, the “concentrations of 4′-phosphopantetheine generated from CoA in human serum” value ([1]; human serum, 37° C., 6 hours incubation of CoA, HPLC) was “observed to increase” and the “rescue of HOPAN induced cell count defect” value (HEK293 cells; FIG. 2) was “rescued the cell count defect”. For the same compound, the “rescue of HOPAN induced cell count defect” value (HEK293 cells; FIG. 2, listed as 4PPT) was “as potent as CoA”, the “rescue of HOPAN induced decrease of intracellular CoA levels” value (HEK293 cells; FIG. 3) was “significantly rescued” and the “rescue of HOPAN induced decrease of intracellular CoA levels” value (HEK293 cells; FIG. 3, listed as 4PPT) was “as potent as CoA”. For the same compound, the “translocation through cell membranes / uptake by cells” value [2] was “able to effectively translocate through cell membranes”.
For `CC(C)(COP(=O)(O)OP(=O)(O)OC[C@H]1O[C@@H](n2cnc3c(N)ncnc32)[C@H](O)[C@@H]1OP(=O)(O)O)[C@@H](O)C(=O)NCCC(=O)NCCS` [CoA, Coenzyme A, reference compound], the plasma triglyceride levels [3] is listed as “effectively reduce plasma triglyceride levels”, the “CoA degraded in human serum” value [4] is listed as 60% and the “rescue of HOPAN induced cell count defect” value (HEK293 cells; FIG. 2) is listed as “rescued the cell count defect”. The “rescue of HOPAN induced decrease of intracellular CoA levels” value (HEK293 cells; FIG. 3) was “significantly rescued”, the toxicity [5] was “no toxicity was observed” and the “translocation through cell membranes / uptake by cells” value [2] was “cells do not absorb CoA directly”.
